Measurements as given in the supplement of paper PMC12137928.
Counter-ions that a name gives are not always drawn.

Tested on: HCT116
Details: 72 h
How it was run: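 IC50 and maximal efficacy were derived from four-parameter Hill curve fits. The underlying CellTiter-Glo luminescence was scaled so that vehicle equals 0% and positive control equals -100%, and was then pattern-corrected. HCT116 cells had been seeded in 1536-well plates at 250 per well.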

SMILES | IC50 cell viability (ICRF193 0 nM) | IC50 cell viability (ICRF193 200 nM)
CCOC(=O)c1ncn2c1CN(C)C(=O)c1c(I)cccc1-2 [Iomazenil] | > 45.8 µM | > 45.8 µM
CC(C)C[C@H]1[C@@H](c2ccccc2)OC(=O)N1CCCN1CCCCCC1 [Ipenoxazone hydrochloride] | > 45.8 µM | > 45.8 µM
OC[C@H]1O[C@@H](c2ccc(F)c(Cc3cc4ccccc4s3)c2)[C@H](O)[C@@H](O)[C@@H]1O [Ipragliflozin] | > 45.8 µM | > 45.8 µM
CC(C)[N+]1(C)[C@@H]2CC[C@H]1C[C@@H](OC(=O)C(CO)c1ccccc1)C2 (stereo not given in full) [Ipratropium bromide] | > 45.8 µM | > 45.8 µM
CC(C)Oc1ccc2c(=O)c(-c3ccccc3)coc2c1 [Ipriflavone] | > 45.8 µM | > 45.8 µM
CCCCC1=NC2(CCCC2)C(=O)N1Cc1ccc(-c2ccccc2-c2nnn[nH]2)cc1 [Irbesartan] | > 45.8 µM | > 45.8 µM
Nc1nc(N)nc(-c2cc(Cl)ccc2Cl)n1 [Irsogladine maleate] | > 45.8 µM | > 45.8 µM
NC(=O)NC1N=C([O][Al])NC1=O.O.O (stereo not given) [Isalon] | > 45.8 µM | > 45.8 µM
CC(CC(C#N)(c1ccccc1)C(C)C)N(C)C (stereo not given) [Isoaminile] | > 45.8 µM | > 45.8 µM
CC(C)COC(=O)c1ccc(N)cc1 [Isocaine] | > 45.8 µM | > 45.8 µM
C/C=C\c1ccc(O)c(OC)c1 [Isoeugenol] | > 45.8 µM | > 45.8 µM
CC(=O)OCC(=O)[C@@]1(O)CC[C@H]2[C@@H]3CCC4=CC(=O)C=C[C@]4(C)[C@@]3(F)[C@@H](O)C[C@@]21C [Isoflupredone acetate] | > 45.8 µM | > 45.8 µM
FC(F)OC(Cl)C(F)(F)F (stereo not given) [Isoflurane] | > 45.8 µM | > 45.8 µM
NNC(=O)c1ccncc1 [Isoniazid] | > 45.8 µM | > 45.8 µM
CC(C)[N+](C)(CCC(C(N)=O)(c1ccccc1)c1ccccc1)C(C)C [Isopropamide] | > 45.8 µM | > 45.8 µM
CCCCCCCCCCCCCC(=O)OC(C)C [Isopropyl tetradecanoic acid] | > 45.8 µM | > 45.8 µM
O=[N+]([O-])O[C@H]1CO[C@H]2[C@@H]1OC[C@H]2O[N+](=O)[O-] [Isosorbide dinitrate] | > 45.8 µM | > 45.8 µM
O=[N+]([O-])O[C@@H]1CO[C@H]2[C@@H]1OC[C@@H]2O [Isosorbide mononitrate] | > 45.8 µM | > 45.8 µM
O[C@@H]1CO[C@H]2[C@@H]1OC[C@@H]2O [Isosorbide] | > 45.8 µM | > 45.8 µM
CC(CN1c2ccccc2Sc2cccnc21)N(C)C (stereo not given) [Isothipendyl hydrochloride] | > 45.8 µM | > 45.8 µM
CC1=C(/C=C/C(C)=C/C=C/C(C)=C\C(=O)O)C(C)(C)CCC1 [Isotretinoin] | > 45.8 µM | > 45.8 µM

SMILES | IC50 cell viability (ICRF193 0 nM) | IC50 cell viability (ICRF193 200 nM)
CC(COc1ccccc1)NC(C)C(O)c1ccc(O)cc1 (stereo not given) [Isoxsuprine hydrochloride] | > 45.8 µM | > 45.8 µM
CCn1c(=O)c2c(nc(/C=C/c3ccc(OC)c(OC)c3)n2C)n(CC)c1=O [Istradefylline] | > 45.8 µM | > 45.8 µM
CN1[C@@H]2CC[C@H]1C[C@@H](NC(=O)n1c(=O)[nH]c3ccccc31)C2 [Itasetron] | > 45.8 µM | > 45.8 µM
CCC(C)n1ncn(-c2ccc(N3CCN(c4ccc(OCC5COC(Cn6cncn6)(c6ccc(Cl)cc6Cl)O5)cc4)CC3)cc2)c1=O (stereo not given) [Itraconazole] | > 45.8 µM | > 45.8 µM
COc1cc2c(cc1OC)CC(=O)N(CCCN(C)C[C@H]1Cc3cc(OC)c(OC)cc31)CC2 [Ivabradine hydrochloride] | > 45.8 µM | > 45.8 µM
Cc1oc(-c2ccccc2)nc1CCOc1ccc(CC2C(=O)NOC2=O)cc1 (stereo not given) [JTT-501] | > 45.8 µM | > 45.8 µM
C=C(C)[C@H]1CN[C@H](C(=O)O)[C@H]1CC(=O)O [Kainic acid] | > 45.8 µM | > 45.8 µM
NC[C@H]1O[C@H](O[C@H]2[C@H](O)[C@@H](O[C@H]3O[C@H](CO)[C@@H](O)[C@H](N)[C@H]3O)[C@H](N)C[C@@H]2N)[C@H](O)[C@@H](O)[C@@H]1O [Kanamycin (sulfate)] | > 45.8 µM | > 45.8 µM
CC(=O)CCC1C(=O)N(c2ccccc2)N(c2ccccc2)C1=O [Kebuzone] | > 45.8 µM | > 45.8 µM
O=C(c1ccc(F)cc1)C1CCN(CCn2c(=O)[nH]c3ccccc3c2=O)CC1 [Ketanserin] | > 45.8 µM | > 45.8 µM
O=C(c1ccccc1)c1ccc2n1CCC2C(=O)O (stereo not given) [Ketorolac] | > 45.8 µM | > 45.8 µM
CN1CCC(=C2c3ccccc3CC(=O)c3sccc32)CC1 [Ketotifen] | > 45.8 µM | > 45.8 µM
O=c1cc(CO)occ1O [Kojic acid] | > 45.8 µM | > 45.8 µM
CCOC(=O)[C@@H](N)CS [L-Cysteine ethyl ester hydrochloride] | > 45.8 µM | > 45.8 µM
COC(=O)[C@@H](N)CS [L-Cysteine methyl ester hydrochloride] | > 45.8 µM | > 45.8 µM
CSCC[C@H](N)C(=O)O [L-Methionine] | > 45.8 µM | > 45.8 µM
CC(C)(S)[C@H](N)C(=O)O [L-Penicillamine] | > 45.8 µM | > 45.8 µM
O=C(O)[C@@H]1CCCN1 [L-Proline] | > 45.8 µM | > 45.8 µM
C[C@@H](O)[C@H](N)C(=O)O [L-Threonine] | > 45.8 µM | > 45.8 µM
CC(C)[C@H](N)C(=O)O [L-Valine] | > 45.8 µM | > 45.8 µM

More lines, now with the values ahead:

IC50 cell viability (ICRF193 0 nM) | IC50 cell viability (ICRF193 200 nM) | SMILES
> 45.8 µM | > 45.8 µM | CC(=O)N(CC(O)CO)c1c(I)c(C(=O)NCC(O)CO)c(I)c(C(=O)NCC(O)CO)c1I (stereo not given) [Iohexol]
> 45.8 µM | > 45.8 µM | CN(C(=O)CO)c1c(I)c(C(=O)NCC(O)CO)c(I)c(C(=O)NCC(O)CO)c1I (stereo not given) [Iomeprol]
> 45.8 µM | > 45.8 µM | C[C@H](O)C(=O)Nc1c(I)c(C(=O)NC(CO)CO)c(I)c(C(=O)NC(CO)CO)c1I [Iopamidol]
> 45.8 µM | > 45.8 µM | CCC(Cc1c(I)cc(I)c(N)c1I)C(=O)O (stereo not given) [Iopanoic acid]
> 45.8 µM | > 45.8 µM | COCC(=O)Nc1c(I)c(C(=O)NCC(O)CO)c(I)c(C(=O)N(C)CC(O)CO)c1I (stereo not given) [Iopromide]
> 45.8 µM | > 45.8 µM | CNC(=O)c1c(I)c(NC(C)=O)c(I)c(C(=O)O)c1I [Iothalamate sodium]
> 45.8 µM | > 45.8 µM | O=C(NCC(O)CO)c1c(I)c(C(=O)NCC(O)CO)c(I)c(N(CCO)C(=O)CO)c1I (stereo not given) [Ioversol]
> 45.8 µM | > 45.8 µM | CNC(=O)c1c(I)c(C(=O)NCC(=O)Nc2c(I)c(C(=O)O)c(I)c(C(=O)NCCO)c2I)c(I)c(N(C)C(C)=O)c1I [Ioxaglic Acid]
> 45.8 µM | > 45.8 µM | CC(=O)N(CC(O)CO)c1c(I)c(C(=O)NCCO)c(I)c(C(=O)NCC(O)CO)c1I (stereo not given) [Ioxilan]
> 45.8 µM | > 45.8 µM | CN(C)/C=N/c1c(I)cc(I)c(CCC(=O)O)c1I [Ipodate sodium]
> 45.8 µM | > 45.8 µM | CN[C@@H]1[C@@H](O)[C@@H](O[C@@H]2[C@@H](O)[C@H](O[C@H]3O[C@H](CN)[C@@H](O)[C@H](O)[C@H]3O)[C@@H](N)C[C@H]2NC(=O)[C@@H](O)CN)OC[C@]1(C)O [Isepamicin]
> 45.8 µM | > 45.8 µM | Cc1cc(C(=O)NNCc2ccccc2)no1 [Isocarboxazid]
> 45.8 µM | > 45.8 µM | CC(=NNC(=O)c1ccncc1)C(=O)O [Isoniazid pyruvate]
> 45.8 µM | > 45.8 µM | O=C(NNCS(=O)(=O)O)c1ccncc1 [Isoniazid sodium methanesulfonate]
> 45.8 µM | > 45.8 µM | CC(C)NCC(O)c1ccc(O)c(O)c1 (stereo not given) [Isoprenaline hydrochloride]
> 45.8 µM | > 45.8 µM | COC(=O)C1=C(C)NC(C)=C(C(=O)OC(C)C)C1c1cccc2nonc12 (stereo not given) [Isradipine]
> 45.8 µM | > 45.8 µM | COc1ccc(C(=O)NCc2ccc(OCCN(C)C)cc2)cc1OC [Itopride hydrochloride]
> 45.8 µM | > 45.8 µM | Cl.NCCCC[C@H](N)C(=O)O [L-(+)-Lysine monohydrochloride]
> 45.8 µM | > 45.8 µM | N=C(N)NCCC[C@H](N)C(=O)O [L-Arginine]
> 45.8 µM | > 45.8 µM | O=C1O[C@H]([C@@H](O)CO)C(O)=C1O [L-Ascorbic acid]
> 45.8 µM | > 45.8 µM | CCCCCCCCCCCCCCCC(=O)OC[C@H](O)[C@H]1OC(=O)C(O)=C1O [L-Ascorbyl 6-palmitate]
> 45.8 µM | > 45.8 µM | N[C@@H](CSSC[C@H](N)C(=O)O)C(=O)O [L-Cystine]
> 45.8 µM | > 45.8 µM | N[C@@H](Cc1cc(I)c(Oc2cc(I)c(O)c(I)c2)c(I)c1)C(=O)O [L-Thyroxine]
> 45.8 µM | > 45.8 µM | Nc1nc(=O)c2c([nH]1)NCC(CNc1ccc(C(=O)N[C@@H](CCC(=O)O)C(=O)O)cc1)N2C=O (stereo not given in full) [LEUCOVORIN CALCIUM]
